According to ChEMBL document CHEMBL4270560, “Novel curcumin analogue hybrids: Synthesis and anticancer activity” (Eur J Med Chem, 2018):
The source made the active and inactive calls. No cut-off for these calls is given here.

Key:
SGC-7901 [1] = test: Cell cycle arrest in human SGC7901 cells assessed as accumulation at G1 phase at 600 nM after 48 hrs by propidium iodide staining based flow cytometric analysis (reference value: 47.93%); format: functional
[2] = target: T1, Thioredoxin reductase 1, cytoplasmic (Homo sapiens, UniProt Q16881); test: (§1) Inhibition of TrxR in human SGC7901 cells; format: cell-based
T1 sequence (Q16881 whole entry): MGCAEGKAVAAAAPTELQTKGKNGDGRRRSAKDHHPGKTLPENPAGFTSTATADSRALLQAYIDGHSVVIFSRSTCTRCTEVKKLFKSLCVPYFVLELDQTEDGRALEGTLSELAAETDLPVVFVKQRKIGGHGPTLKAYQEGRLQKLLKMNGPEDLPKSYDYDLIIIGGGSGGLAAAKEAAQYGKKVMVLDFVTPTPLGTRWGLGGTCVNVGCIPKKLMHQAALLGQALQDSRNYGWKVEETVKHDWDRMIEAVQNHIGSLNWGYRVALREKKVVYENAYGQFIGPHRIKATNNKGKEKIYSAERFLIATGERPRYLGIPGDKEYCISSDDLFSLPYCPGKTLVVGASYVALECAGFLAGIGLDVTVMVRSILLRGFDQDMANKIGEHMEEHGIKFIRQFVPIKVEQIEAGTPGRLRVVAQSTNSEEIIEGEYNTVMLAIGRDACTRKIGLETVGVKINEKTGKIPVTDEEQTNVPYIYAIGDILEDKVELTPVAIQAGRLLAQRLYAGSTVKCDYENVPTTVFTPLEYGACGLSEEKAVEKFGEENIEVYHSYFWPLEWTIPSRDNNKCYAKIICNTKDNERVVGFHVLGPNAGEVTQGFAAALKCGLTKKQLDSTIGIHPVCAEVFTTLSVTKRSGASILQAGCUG

[3] = target: T2, Thioredoxin reductase 1, cytoplasmic (Homo sapiens) (UniProt Q16881); test: as §1; format: cell-based
T2 sequence (whole entry): T1 sequence (Q16881 whole entry)

[4] = target: Thioredoxin reductase (Homo sapiens) (UniProt Q16881+Q9NNW7+Q86VQ6); test: Inhibition of TrxR in human SGC7901 cells assessed as induction of intracellular ROS generation at 800 to 1000 nM after 5 hrs in presence of NAC by DCFH-DA staining based flow cytometric analysis; format: cell-based
Sequence of Thioredoxin reductase (Homo sapiens) (Q86VQ6 whole entry, looked up, one chain of several): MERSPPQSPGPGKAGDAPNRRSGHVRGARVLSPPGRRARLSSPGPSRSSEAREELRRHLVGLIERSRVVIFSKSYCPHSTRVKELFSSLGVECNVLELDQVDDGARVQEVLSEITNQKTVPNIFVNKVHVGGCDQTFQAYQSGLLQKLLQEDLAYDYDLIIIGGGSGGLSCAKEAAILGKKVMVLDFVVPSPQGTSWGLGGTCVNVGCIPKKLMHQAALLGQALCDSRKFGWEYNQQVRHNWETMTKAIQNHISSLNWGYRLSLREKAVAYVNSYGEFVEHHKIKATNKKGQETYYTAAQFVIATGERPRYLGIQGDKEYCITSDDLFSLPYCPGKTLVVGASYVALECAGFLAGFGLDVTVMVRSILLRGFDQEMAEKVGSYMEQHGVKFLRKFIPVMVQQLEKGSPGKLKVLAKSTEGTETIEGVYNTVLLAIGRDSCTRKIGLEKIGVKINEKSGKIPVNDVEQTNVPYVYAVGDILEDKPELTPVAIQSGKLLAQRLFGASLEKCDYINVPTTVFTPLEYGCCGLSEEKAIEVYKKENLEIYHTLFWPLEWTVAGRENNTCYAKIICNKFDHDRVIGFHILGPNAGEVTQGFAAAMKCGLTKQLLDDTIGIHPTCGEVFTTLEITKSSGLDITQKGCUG
Sequence of Thioredoxin reductase (Homo sapiens) (Q9NNW7 whole entry, looked up, one chain of several): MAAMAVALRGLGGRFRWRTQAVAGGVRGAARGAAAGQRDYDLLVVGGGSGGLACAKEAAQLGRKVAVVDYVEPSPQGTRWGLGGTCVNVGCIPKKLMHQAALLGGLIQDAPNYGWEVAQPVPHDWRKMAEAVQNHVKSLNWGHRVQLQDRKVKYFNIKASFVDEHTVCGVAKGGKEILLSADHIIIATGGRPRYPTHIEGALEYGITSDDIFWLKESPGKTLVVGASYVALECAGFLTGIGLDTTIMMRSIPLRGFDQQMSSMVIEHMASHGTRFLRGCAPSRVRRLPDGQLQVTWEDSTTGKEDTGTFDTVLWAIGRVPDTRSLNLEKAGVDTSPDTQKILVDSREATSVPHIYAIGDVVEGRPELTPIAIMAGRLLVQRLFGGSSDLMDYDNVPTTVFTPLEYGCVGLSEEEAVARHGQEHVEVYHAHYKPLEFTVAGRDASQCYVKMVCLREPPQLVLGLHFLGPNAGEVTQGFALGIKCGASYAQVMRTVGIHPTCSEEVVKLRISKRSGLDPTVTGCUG

SGC-7901 [5] = test: Cell cycle arrest in human SGC7901 cells assessed as accumulation at S phase at 1000 nM after 48 hrs by propidium iodide staining based flow cytometric analysis (reference value: 33.30%); format: functional
SGC-7901 [6] = test: Cell cycle arrest in human SGC7901 cells assessed as accumulation at S phase at 600 nM after 48 hrs by propidium iodide staining based flow cytometric analysis (reference value: 33.30%); format: functional

Compound: COc1cc(OC)c2c(=O)c(OCCCOc3ccccc3/C=C/C(=O)/C=C/c3ccccn3)c(-c3cc(OC)c(OC)c(OC)c3)oc2c1
- Activity (SGC-7901 [1]): 48.92%
- IC50 [2]: 783 nM
- inhibition [3]: Dose-dependent effect
- inhibition [4]: inactive
- Activity (SGC-7901 [5]): 33.28%
- Activity (SGC-7901 [6]): 35.47%
